Results as given in ChEMBL document CHEMBL1777740, “Toward self-adjuvanting subunit vaccines: model peptide and protein antigens incorporating covalently bound toll-like receptor-7 agonistic imidazoquinolines” (Bioorg Med Chem Lett, 2011).
Active and inactive are the calls of the source. The calls are words filed in the database; no cut-off is given here.

How the values were obtained:
Type in all cases: functional, cell-based
PBMC [1] = assay: Immunostimulatory activity in human PBMC assessed as Th1-biased immunostimulatory activity measured as IFNalpha release by ELISA
PBMC [2] = assay: Immunostimulatory activity in human PBMC assessed as Th1-biased immunostimulatory activity measured as IL18 release by ELISA
PBMC [3] = assay: Immunostimulatory activity in human PBMC assessed as Th1-biased immunostimulatory activity measured as IL12 release by ELISA
PBMC [4] = assay: Immunostimulatory activity in human PBMC assessed as Th1-biased immunostimulatory activity measured as IFN-gamma release by ELISA
[5] = target: T1, Toll-like receptor 7 (Homo sapiens) (UniProt Q9NYK1); assay: Agonist activity at human TLR7 transfected in HEK reporter cells assessed as NF-kappaB induction by specific secreted alkaline phosphatase gene assay; conditions: HEK293
T1 sequence (whole entry): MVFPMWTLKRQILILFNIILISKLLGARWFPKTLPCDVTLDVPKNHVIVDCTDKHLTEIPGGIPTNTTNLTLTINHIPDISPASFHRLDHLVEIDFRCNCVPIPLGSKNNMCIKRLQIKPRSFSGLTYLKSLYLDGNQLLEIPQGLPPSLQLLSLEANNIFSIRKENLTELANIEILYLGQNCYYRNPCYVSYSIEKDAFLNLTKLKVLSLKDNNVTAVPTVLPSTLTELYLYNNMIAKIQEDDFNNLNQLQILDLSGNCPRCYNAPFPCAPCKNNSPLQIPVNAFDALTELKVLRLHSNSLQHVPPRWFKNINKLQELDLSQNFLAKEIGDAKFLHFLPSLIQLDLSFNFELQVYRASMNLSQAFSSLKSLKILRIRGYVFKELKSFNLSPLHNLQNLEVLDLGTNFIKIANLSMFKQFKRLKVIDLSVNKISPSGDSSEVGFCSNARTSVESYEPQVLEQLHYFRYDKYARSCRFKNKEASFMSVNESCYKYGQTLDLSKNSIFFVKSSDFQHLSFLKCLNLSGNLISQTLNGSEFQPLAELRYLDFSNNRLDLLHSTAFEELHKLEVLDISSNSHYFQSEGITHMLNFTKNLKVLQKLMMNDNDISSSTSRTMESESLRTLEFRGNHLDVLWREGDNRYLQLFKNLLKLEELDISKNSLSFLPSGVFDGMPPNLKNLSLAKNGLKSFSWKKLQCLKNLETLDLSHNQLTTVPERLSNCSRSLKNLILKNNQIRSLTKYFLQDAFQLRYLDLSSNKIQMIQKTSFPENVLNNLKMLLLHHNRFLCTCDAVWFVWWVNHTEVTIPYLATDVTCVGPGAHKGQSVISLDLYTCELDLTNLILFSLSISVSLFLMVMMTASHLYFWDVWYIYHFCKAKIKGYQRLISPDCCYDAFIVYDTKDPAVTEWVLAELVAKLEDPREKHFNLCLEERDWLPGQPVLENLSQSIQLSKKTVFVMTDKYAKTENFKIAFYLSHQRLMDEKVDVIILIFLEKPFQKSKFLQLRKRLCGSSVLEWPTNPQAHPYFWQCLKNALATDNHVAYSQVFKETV

Row | Activity [5] | Compound | Activity (PBMC [1]) | Activity (PBMC [2]) | Activity (PBMC [3]) | Activity (PBMC [4])
1 | – | CCCCc1nc2c(N)nc3ccccc3c2n1Cc1ccc(CN)cc1 | Active | Active | Active | Active
2 | inactive | CCCCc1nc2c(N)nc3ccccc3c2n1Cc1ccc(CNC(=O)CCN2C(=O)CC(SC[C@@H](NC(=O)CC[C@@H](N)C(=O)O)C(=O)NCC(=O)O)C2=O)cc1 (stereo not given in full) | – | – | – | –
